Tested on: 3T3-L1 cells
Experiment: Glucose transport assay
Type: cell-based
Conditions: differentiated 3T3-L1 preadipocyte cell line, in the absence of insulin; 0.1 μM to 500 μM, 1-4 hours
Text: This assay was used to assess the ability of the compounds of the invention to inhibit phosphatase activity that is involved in the signaling pathway that regulates the insulin-induced facilitated transport of glucose into adipocytes. […] Any compounds of the invention may be tested in this assay.
The cell line used for the glucose transport assay was 3T3-L1, a preadipocyte cell line (American Type Culture Collection CCL92.1) which overexpress the insulin receptor. The 3T3-L1 cells were first differentiated by treating cells under confluent growth in DMEM containing 10% fetal bovine serum (FBS) with 0.5 mM 3-isobutyl-1-methyl-xanthine, 5 μg/ml porcine insulin, […] dexamethasone for 2 days. The cells were then grown in DMEM containing 10% FBS and 5 μg/ml porcine insulin for two days, after which the cells were cultured in DMEM containing only 10% FBS.
Cells for use in the assay were first grown overnight in DMEM media and 1% FBS at 37° C. at 5% CO2. Two hours before use, the overnight media was replaced with serum free DMEM containing 5 mM glucose. […] The wells were washed each with 200 μl PBS which was transferred to the corresponding scintillation vial. ^3 H radioactivity was counted with a Beckman counter.

CC1CC(=O)c2c(cc3c(-c4c(O)cc(O)c5c(O)c6c(cc45)OC(C)CC6=O)c(O)cc(O)c3c2O)O1 (stereo not shown) [Compound 1]
uptake of 2-deoxy-3H-glucose: Dose response effect
